Experimental data as given in patent publication US20200069691A1, “HETEROCYCLIC COMPOUNDS AS HIV PROTEASE INHIBITORS” (Merck Sharp & Dohme Corp., priority 2016, published 2020).

Molecular target: T1, wild-type HIV-1 protease (Human immunodeficiency virus type 1 group M subtype B, UniProt P04585)
T1 construct: Escherichia coli expressed wild-type HIV-1 protease protein
Assay: Assay for Inhibition of Microbial Expressed HIV Protease (peptide substrate cleavage, LC-MS/MS readout)
Assay type: biochemical
Settings: E. coli expressed wild-type HIV-1 protease, mean of at least two independent experiments, read-out: HIV Pr Enzyme HIV1 PR IC50
Method: Assay for Inhibition of Microbial Expressed HIV Protease
Inhibition of Escherichia coli expressed wild-type HIV-1 protease protein was carried out with a peptide substrate [Val-Ser-Gln-Asn-(βnaphtyl)Ala-Pro-Ile-Val]. The inhibitor compound was preincubated with HIV-1 protease enzyme in assay buffer (50 mM sodium acetate, pH 5.5, 100 mM NaCl, and 0.1% BSA) for 30 minutes at room temperature. Peptide substrate was added to 400 μM in a total volume of 20 μL containing […] HIV-1 protease (final) after which the reaction was incubated for 1 hour at 30° C. […] The extent of inhibition of the reaction was determined from the peak area of the products.
Data shown in the table reflects the mean of at least two independent experiments.

SMILES	IC50 [nM]
N=C1NC(CCC2CC2)(c2cccc(C(F)(F)F)c2)C(=O)N1Cc1ccc(C(F)(F)F)c(C(=O)N2Cc3nccnc3C2)c1 (stereo not shown) [Compound 75, 5-(2-cyclopropylethyl)-3-[3-(5,7-dihydro-6H-pyrrolo[3,4-b]pyrazin-6-ylcarbonyl)-4-(trifluoromethyl)-benzyl]-2-imino-5-[3-(trifluoro-methyl)phenyl]-imidazolidin-4-one]	10.2
Cc1cc2c(cn1)CN(C(=O)c1cccc(CN3C(=N)NC(c4ccccc4)(c4ccccc4)C3=O)c1)C2 [Compound 214, 2-imino-3-{3-[(6-methyl-1,3-dihydro-2H-pyrrolo[3,4-c]pyridin-2-yl)carbonyl]benzyl}-5,5-diphenylimidazolidin-4-one]	9.81
COC(=O)Nc1ncc2c(n1)CN(C(=O)c1cc(CN3C(=N)NC(c4ccc(F)cc4)(c4ccc(F)cc4)C3=O)ccc1F)C2 [Compound 370, methyl {6-[(5-{[4,4-bis(4-fluorophenyl)-2-imino-5-oxoimidazolidin-1-yl]methyl}-2-fluorophenyl)carbonyl]-6,7-dihydro-5H-pyrrolo[3,4-d]pyrimidin-2-yl}carbamate]	5.81
CC(C)C[C@@]1(c2ccccc2)NC(=N)N(Cc2ccc(C(F)(F)F)c(C(=O)N3Cc4nccnc4C3)c2)C1=O [Compound 174, (5S)-3-[3-(5,7-dihydro-6H-pyrrolo[3,4-b]pyrazin-6-ylcarbonyl)-4-(trifluoromethyl)-benzyl]-2-imino-5-(2-methylpropyl)-5-phenylimidazolidin-4-one]	54.9
CC(C)CCC1(c2ccccc2)NC(=N)N(Cc2ccc(C(F)(F)F)c(C(=O)N3CCC(n4c(=O)[nH]c5ccccc54)CC3)c2)C1=O (stereo not shown) [Compound 155, 1-(1-{[5-{[2-imino-4-(3-methylbutyl)-5-oxo-4-phenyl-imidazolidin-1-yl]methyl}-2-(trifluoromethyl)phenyl]carbonyl}piperidin-4-yl)-1,3-dihydro-2H-benzimidazol-2-one]	11.3
N#Cc1cccc(-c2cccc(C3(c4ccc(F)cc4)NC(=N)N(Cc4cccc(C(=O)N5Cc6ccccc6C5)c4)C3=O)c2)c1 (stereo not shown) [Compound 292, 3′-{1-[3-(1,3-dihydro-2H-isoindol-2-ylcarbonyl)benzyl]-4-(4-fluorophenyl)-2-imino-5-oxoimidazolidin-4-yl}biphenyl-3-carbonitrile]	39
N=C1NC(c2ccc(F)cc2)(c2cccc(Br)c2)C(=O)N1Cc1cccc(C(=O)N2Cc3[nH]nc(C(F)(F)F)c3C2)c1 (stereo not shown) [Compound 212, 5-(3-bromophenyl)-5-(4-fluorophenyl)-2-imino-3-(3-{[3-(trifluoromethyl)-4,6-dihydropyrrolo [3,4-c]pyrazol-5(1H)-yl]carbonyl}benzyl) imidazolidin-4-one]	9.49
CC(C)CCC1(c2ccc(F)cc2)NC(=N)N(Cc2ccc(C(F)(F)F)c(C(=O)N3Cc4cncnc4C3)c2)C1=O (stereo not shown) [Compound 167, 3-[3-(5,7-dihydro-6H-pyrrolo[3,4-d]pyrimidin-6-ylcarbonyl)-4-(trifluoromethyl)benzyl]-5-(4-fluorophenyl)-2-imino-5-(3-methylbutyl)imidazolidin-4-one]	36.9
N#Cc1ncc2c(n1)CN(C(=O)c1cccc(CN3C(=N)NC(c4ccccc4)(c4ccccc4)C3=O)c1)C2 [Compound 199, 6-({3-[(2-imino-5-oxo-4,4-diphenylimidazolidin-1-yl)methyl]phenyl}carbonyl)-6,7-dihydro-5H-pyrrolo[3,4-d]pyrimidine-2-carbonitrile]	5.59
CC(C)C[C@]1(c2ccccc2)NC(=N)N([C@H](C)c2cccc(C(=O)N3Cc4cncnc4C3)c2)C1=O [Compound 261, 3-{(1R)-1-[3-(5,7-dihydro-6H-pyrrolo[3,4-d]pyrimidin-6-ylcarbonyl)phenyl]ethyl}-2-imino-5-(2-methylpropyl)-5-phenylimidazolidin-4-one]	23.5
N=C1NC(c2ccccc2)(c2ccccc2)C(=O)N1Cc1cc(C(=O)N2Cc3cncnc3C2)ccn1 [Compound 401, 3-{[4-(5,7-dihydro-6H-pyrrolo[3,4-d]pyrimidin-6-ylcarbonyl)pyridin-2-yl]methyl}-2-imino-5,5-diphenylimidazolidin-4-one]	31.4
C[C@H](c1cccc(C(=O)N2Cc3cnn(C)c3C2)c1)N1C(=N)NC(c2ccc(F)cc2)(c2ccc(F)cc2)C1=O [Compound 202, 5,5-bis(4-fluorophenyl)-2-imino-3-[(1R)-1-{3-[(1-methyl-4,6-dihydropyrrolo [3,4-c]pyrazol-5(1H)-yl)carbonyl]phenyl}-ethyl]imidazolidin-4-one]	6.54
N=C1NC(c2ccc(F)cc2)(c2ccc(F)cc2)C(=O)N1Cc1cncc(C(=O)N2CCN(C(=O)OCCOCc3ccccc3)CC2)c1 [Compound 391, 2-(benzyloxy)ethyl 4-[(5-{[4,4-bis(4-fluorophenyl)-2-imino-5-oxoimidazolidin-1-yl]methyl}pyridin-3-yl)carbonyl]piperazine-1-carboxylate]	13.6
N=C1NC(c2ccccc2)(c2ccccc2)C(=O)N1Cc1cccc(C(=O)N2CCn3c(Cc4ccccc4)cnc3C2)c1 [Compound 337, 3-{3-[(3-benzyl-5,6-dihydroimidazo [1,2-a]pyrazin-7(8H)-yl)carbonyl]benzyl}-2-imino-5,5-diphenylimidazolidin-4-one]	72
N=C1N[C@](CCCC(F)(F)F)(c2ccc(F)cc2)C(=O)N1Cc1ccc(C(F)(F)F)c(C(=O)N2Cc3cnc(-c4cccc5[nH]ncc45)nc3C2)c1 [Compound 22, (5R)-5-(4-fluorophenyl)-2-imino-3-[3-{[2-(1H-indazol-4-yl)-5,7-dihydro-6H-pyirolo[3,4-d]pyrimidin-6-yl]carbonyl}-4-(trifluoromethyl)benzyl]-5-(4,4,4-trifluorobutyl)imidazolidin-4-one]	2.32
N=C1NC(c2ccccc2)(c2ccccc2)C(=O)N1Cc1cc(C(=O)N2Cc3nccnc3C2)cs1 [Compound 407, 3-{[4-(5,7-dihydro-6H-pyrrolo[3,4-b]pyrazin-6-ylcarbonyl)thiophen-2-yl]methyl}-2-imino-5,5-diphenylimidazolidin-4-one]	73.8
CC(C)CCC1(c2ccccc2)NC(=N)N(Cc2ccc(C(F)(F)F)c(C(=O)N3CCC(C)(C)C3)c2)C1=O (stereo not shown) [Compound 176, 3-{3-[(3,3-dimethylpyrrolidin-1-yl)carbonyl]-4-(trifluoromethyl)benzyl}-2-imino-5-(3-methylbutyl)-5-phenylimidazolidin-4-one]	63.4
N#Cc1ncc2c(n1)CN(C(=O)c1cccc(CN3C(=N)NC(c4ccc(F)cc4)(c4ccc(F)cc4)C3=O)c1)C2 [Compound 182, 6-[(3-{[4,4-bis(4-fluorophenyl)-2-imino-5-oxoimidazolidin-1-yl]methyl}phenyl)carbonyl]-6,7-dihydro-5H-pyrrolo[3,4-d]pyrimidine-2-carbonitrile]	1.7
N=C1NC(c2ccc(F)cc2)(c2ccc(F)cc2)C(=O)N1Cc1ccc(C(F)(F)F)c(C(=O)N2CCC(F)(F)C2)c1 [Compound 172, 3-{3-[(3,3-difluoropyrrolidin-1-yl)carbonyl]-4-(trifluoromethyl)-benzyl}-5,5-bis(4-fluorophenyl)-2-iminoimidazolidin-4-one]	53.3
N=C1N[C@](CCCC(F)(F)F)(c2ccc(F)cc2)C(=O)N1Cc1ccc(C(F)(F)F)c(C(=O)N2Cc3cnc(-c4cnn(CCO)c4)nc3C2)c1 [Compound 12, (5R)-5-(4-fluorophenyl)-3-[3-({2-[1-(2-hydroxyethyl)-1H-pyrazol-4-yl]-5,7-dihydro-6H-pyrrolo[3,4-d]pyrimidin-6-yl}carbonyl)-4-(trifluoromethyl)benzyl]-2-imino-5-(4,4,4-trifluorobutyl)imidazolidin-4-one]	1.32
CC(C)CC[C@]1(c2ccccc2)NC(=N)N(Cc2ccc(C(F)(F)F)c(C(=O)N3Cc4nccnc4C3)c2)C1=O [Compound 30, (5R)-3-[3-(5,7-dihydro-6H-pyrrolo[3,4-b]pyrazin-6-ylcarbonyl)-4-(trifluoromethyl)-benzyl]-2-iirrino-5-(3-methylbutyl)-5-phenylimidazolidin-4-one]	3.08
CC(C)CC1(c2ccccc2)NC(=N)N(Cc2ccc(Cl)c(C(=O)N3Cc4cnc(C#N)nc4C3)c2)C1=O (stereo not shown) [Compound 364, 6-[(2-chloro-5-{[2-imino-4-(2-methylpropyl)-5-oxo-4-phenylimidazolidin-1-yl]methyl}phenyl)carbonyl]-6,7-dihydro-5H-pyrrolo[3,4-d]pyrimidine-2-carbonitrile]	4.17
CC(C)CCC1(c2ccc(F)cc2)NC(=N)N(Cc2cccc(C(=O)N3Cc4nccnc4C3)c2)C1=O (stereo not shown) [Compound 252, 3-[3-(5,7-dihydro-6H-pyrrolo[3,4-b]pyrazin-6-ylcarbonyl)benzyl]-5-(4-fluorophenyl)-2-imino-5-(3-methylbutyl)imidazolidin-4-one]	19.8
CC(=O)N1CCN(C(=O)c2cccc(CN3C(=N)NC(c4ccc(F)cc4)(c4ccc(F)cc4)C3=O)c2)CC1 [Compound 335, 3-{3-[(4-acetylpiperazin-1-yl)carbonyl]benzyl}-5,5-bis(4-fluorophenyl)-2-iminoimidazolidin-4-one]	70.5
N=C1NC(c2ccccc2)(c2ccccc2)C(=O)N1Cc1cccc(C(=O)N2CCN(c3ccccc3)CC2)c1 [Compound 324, 2-imino-5,5-diphenyl-3-{3-[(4-phenylpiperazin-1-yl)carbonyl]benzyl} imidazolidin-4-one]	57.7
